What was measured:
Type in all cases: in vivo, healthy adult subjects
[1] = Drug interaction study of pemafibrate with rifampicin (plasma pharmacokinetics of pemafibrate); settings: for AUC(0-inf) / Cmax: human, plasma, po, 0.4 mg, geometric mean, oral, fasting
Description: A study was conducted to investigate the effect of rifampicin on the pharmacokinetics of pemafibrate in healthy adult subjects.
Subjects were orally administered on the following schedule. The administration of 0.4 mg of pemafibrate on Days 1 and 4 was carried out under fasting for at least 8 hours, and the fasting was maintained for 4 hours after the administration. • Day 1: Pemafibrate 0.4 mg alone • Day 4: A single dose of 0.4 mg of pemafibrate plus 600 mg of rifampicin • Days 5-6: Rifampicin 600 mg alone [Measurement]
(§1) Plasma concentration of pemafibrate was measured on blood samples from patients taken prior to and at 0.25, 0.5, 1, 1.5, 2, 3, 4, 6, 8, 10, 12, 14, 16, 24, 36, 48, 72 hours after administration of the drug on Days 1 and 4.
For estimates of the Cmax of pemafibrate and the area under the concentration-time curves (AUC0-inf) up to infinity hours, the geometric mean values and the ratios of the geometric mean values for concomitant administration to those for the single administration are shown in Table 1.

[2] = Drug interaction study of pemafibrate with clarithromycin (plasma pharmacokinetics of pemafibrate); settings: for AUC(0-inf) / Cmax: human, plasma, po, 0.4 mg, geometric mean
Description: A study was conducted to investigate the effect of clarithromycin on the pharmacokinetics of pemafibrate in healthy adult subjects.
20 healthy adult subjects
Subjects were orally administered on the following schedule. The administration of 0.4 mg of pemafibrate on Days 1 and 9 was carried out under fasting for at least 8 hours, and the fasting was maintained for 4 hours after the administration. • Day 1: Pemafibrate 0.4 mg alone • Day 4 to 8: Clarithromycin 500 mg twice per day (1000 mg/day) • Day 9: Pemafibrate 0.4 mg single dose and Clarithromycin 500 mg twice per day (1000 mg/day) • Day 10 to 11: Clarithromycin 500 mg twice per day (1000 mg/day) Measurement
Plasma concentration of pemafibrate was measured on blood samples from patients collected prior to and at 0.25, 0.5, 1, 1.5, 2, 3, 4, 6, 8, 10, 12, 14, 16, 24, 36, 48, 72 hours after administration of 0.4 mg of pemafibrate on Days 1 and 9.
For estimates of the Cmax of pemafibrate and the area under the concentration-time curves (AUC0-inf) up to infinity hours, the geometric mean values and the ratios of the geometric mean values for concomitant administration to those for the single administration are shown in Table 2.

[3] = Drug interaction study of pemafibrate with cyclosporine (plasma pharmacokinetics of pemafibrate); settings: for AUC(0-inf) / Cmax: human, plasma, po, 0.4 mg, geometric mean, oral, fasting
Description: A study was conducted to investigate the effect of cyclosporine on the pharmacokinetics of pemafibrate in healthy adult subjects.
Subjects were orally administered on the following schedule. Drug administration was carried out under fasting for at least 8 hours, and fasting was maintained for 4 hours after administration. • Day 1: Pemafibrate 0.4 mg alone • Day 4: Combined single dose of 0.4 mg of pemafibrate and 600 mg of cyclosporine (Neoral® or its equivalent) [Measurement]
as §1
For estimates of the Cmax of pemafibrate and the area under the concentration-time curves (AUC0-inf) up to infinity hours, the geometric mean values and the ratios of the geometric mean values for concomitant administration to those for the single administration are shown in Table 3.

[4] = Drug interaction study of pemafibrate with clopidogrel (plasma pharmacokinetics of pemafibrate); settings: for AUC(0-inf) / Cmax: human, plasma, po; for AUC0-inf ratio (concomitant use/single use) / Cmax ratio (concomitant use/single use): ratio of geometric means
Description: A study was conducted to investigate the effect of clopidogrel on the pharmacokinetics of pemafibrate in healthy adult subjects.
Subjects were orally administered on the following schedule. Pemafibrate administration on Days 1, 4, and 7 was carried out under fasting for at least 8 hours and maintained fasting for 4 hours after administration. • Day 1: Pemafibrate 0.4 mg alone • Day 4: A single dose of 0.4 mg of pemafibrate plus 391.5 mg of clopidogrel sulfate (equivalent to 300 mg of clopidogrel) • Day 5 to 6: Clopidogrel Sulfate 91.875 mg (equivalent to Clopidogrel 75 mg) alone • Day 7: A single dose of 0.4 mg of pemafibrate and 91.875 mg of clopidogrel sulfate (equivalent to 75 mg of clopidogrel) • Day 8 to 9: Clopidogrel Sulfate 91.875 mg (equivalent to Clopidogrel 75 mg) alone Measurement
Plasma concentration of pemafibrate was measured on blood samples from patients taken prior to and at 0.25, 0.5, 1, 1.5, 2, 3, 4, 6, 8, 10, 12, 14, 16, 24, 36, 48, 72 hours after administration of the drug on Days 1, 4, and 7.
For estimates of the Cmax of pemafibrate and the area under the concentration-time curves (AUC0-inf) up to infinity hours, the geometric mean values and the ratios of the geometric mean values of the single-dose concomitant administration (Day 4) to those for the single administration (Day 1) are shown in Table 4.
For the Cmax and AUC0-inf of pemafibrate, the geometric mean values and the ratios of the geometric mean values for concomitant administration after repeated administration of clopidogrel (day 7) to those for the single administration (day 1) are shown in Table 5.

[5] = Day 1, pemafibrate 0.4 mg alone, read-out: AUC0-inf, single administration
[6] = Day 1, pemafibrate 0.4 mg alone, read-out: Cmax, single administration
[7] = ratio of geometric means, with rifampicin 600 mg vs pemafibrate alone
[8] = ratio of geometric means, with clarithromycin 1000 mg/day vs pemafibrate alone
[9] = ratio of geometric means, with cyclosporine 600 mg vs pemafibrate alone
[10] = Day 4 (clopidogrel 300 mg single dose) vs Day 1
[11] = Day 7 (after repeated clopidogrel, 75 mg) vs Day 1

CC[C@@H](Oc1cccc(CN(CCCOc2ccc(OC)cc2)c2nc3ccccc3o2)c1)C(=O)O [pemafibrate, (2R)-2-[3-({1,3-benzoxazol-2-yl[3-(4-methoxyphenoxy)propyl]amino}methyl)phenoxy]butanoic acid]
plasma concentration of pemafibrate, concomitant vs alone ([1]; concomitant administration with rifampicin compared with pemafibrate alone): increase in the plasma concentration of pemafibrate | AUC(0-inf) [1, 5]: 20.1 ng·h/mL | Cmax [1, 6]: 5.67 ng/mL | AUC(0-inf) ([1]; Day 4, single dose pemafibrate 0.4 mg plus rifampicin 600 mg, read-out: AUC0-inf, concomitant administration): 219 ng·h/mL | Cmax ([1]; Day 4, single dose pemafibrate 0.4 mg plus rifampicin 600 mg, read-out: Cmax, concomitant administration): 53.5 ng/mL | AUC0-inf ratio (concomitant use/single use) [1, 7]: 10.9009 | Cmax ratio (concomitant use/single use) [1, 7]: 9.436 | plasma concentration of pemafibrate, concomitant vs alone ([2]; concomitant administration with clarithromycin compared with pemafibrate alone): increase in the plasma concentration of pemafibrate | AUC(0-inf) ([2]; Day 1, pemafibrate 0.4 mg alone, oral, fasting, read-out: AUC0-inf, single administration): 17 ng·h/mL | Cmax ([2]; Day 1, pemafibrate 0.4 mg alone, oral, fasting, read-out: Cmax, single administration): 4.67 ng/mL | AUC(0-inf) ([2]; Day 9, pemafibrate 0.4 mg single dose with clarithromycin 500 mg twice per day (given from Day 4), read-out: AUC0-inf, concomitant administration): 35.7 ng·h/mL | Cmax ([2]; Day 9, pemafibrate 0.4 mg single dose with clarithromycin 500 mg twice per day (given from Day 4), read-out: Cmax, concomitant administration): 11.3 ng/mL | AUC0-inf ratio (concomitant use/single use) [2, 8]: 2.0975 | Cmax ratio (concomitant use/single use) [2, 8]: 2.4246 | plasma concentration of pemafibrate, concomitant vs alone ([3]; concomitant administration with cyclosporine compared with pemafibrate alone): increase in the plasma concentration of pemafibrate | AUC(0-inf) [3, 5]: 13.4 ng·h/mL | Cmax [3, 6]: 4.59 ng/mL | AUC(0-inf) ([3]; Day 4, combined single dose pemafibrate 0.4 mg and cyclosporine 600 mg, read-out: AUC0-inf, concomitant administration): 187 ng·h/mL | Cmax ([3]; Day 4, combined single dose pemafibrate 0.4 mg and cyclosporine 600 mg, read-out: Cmax, concomitant administration): 41.2 ng/mL | AUC0-inf ratio (concomitant use/single use) [3, 9]: 13.9947 | Cmax ratio (concomitant use/single use) [3, 9]: 8.9644 | plasma concentration of pemafibrate, concomitant vs alone ([4]; concomitant administration after repeated administration of clopidogrel (day 7) compared with pemafibrate alone (day 1)): increase in the plasma concentration of pemafibrate | AUC0-inf, concomitant administration ([4]; geometric mean, Day 7, pemafibrate 0.4 mg plus clopidogrel sulfate 91.875 mg (equivalent to 75 mg of clopidogrel) after repeated administration of clopidogrel): 33.5611 ng·h/mL | AUC(0-inf) ([4]; 0.4 mg, geometric mean, Day 1, pemafibrate 0.4 mg alone, oral, fasting, read-out: AUC0-inf, single administration): 16.1 ng·h/mL | Cmax ([4]; 0.4 mg, geometric mean, Day 1, pemafibrate 0.4 mg alone, oral, fasting, read-out: Cmax, single administration): 4.77 ng/mL | Cmax ([4]; 0.4 mg, geometric mean, Day 4, single dose pemafibrate 0.4 mg plus clopidogrel sulfate 391.5 mg (equivalent to 300 mg of clopidogrel), read-out: Cmax, concomitant administration): 7.08 ng/mL | AUC(0-inf) ([4]; geometric mean, Day 4, single dose pemafibrate 0.4 mg plus clopidogrel sulfate 391.5 mg (equivalent to 300 mg of clopidogrel), read-out: AUC0-inf, concomitant administration): 38.1 ng·h/mL | Cmax ([4]; geometric mean, Day 7, pemafibrate 0.4 mg plus clopidogrel sulfate 91.875 mg (equivalent to 75 mg of clopidogrel) after repeated administration of clopidogrel, read-out: Cmax, concomitant administration): 6.39 ng/mL | AUC0-inf ratio (concomitant use/single use) [4, 10]: 2.3728 | Cmax ratio (concomitant use/single use) [4, 10]: 1.4855 | AUC0-inf ratio (concomitant use/single use) [4, 11]: 2.0876 | Cmax ratio (concomitant use/single use) [4, 11]: 1.3415 | plasma concentration of pemafibrate, concomitant vs alone ([4]; single-dose concomitant administration with clopidogrel (Day 4) compared with pemafibrate alone (Day 1)): increase in the plasma concentration of pemafibrate

— patent publication US11554110B2, “Pemafibrate dosing regimens” (Kowa Company, Ltd., priority 2017, dated 2023)
